Consider 6 molecules from ChEMBL document CHEMBL5247679, “Novel Quinoline Compounds as KRAS Inhibitors for Treating Cancer” (ACS Med Chem Lett, 2023).

For assay [1], the target named is GTPase KRas (Homo sapiens, UniProt P01116, G12D). Nature of the assay: Inhibition of KRAS G12D mutant (unknown origin) preincubated for 4 hrs followed by SOS1 addition and measured after 2 hrs by fluorescence based analysis.
Assay [2] deals with GTPase KRas (Homo sapiens, UniProt P01116, G12V). Nature of the assay: Inhibition of KRAS G12V mutant (unknown origin) preincubated for 4 hrs followed by SOS1 addition and measured after 3 hrs by fluorescence based analysis.

Each structure is given as a SMILES string.

GTPase KRas (Homo sapiens, UniProt P01116, G12V), sequence (P01116 whole entry G12V): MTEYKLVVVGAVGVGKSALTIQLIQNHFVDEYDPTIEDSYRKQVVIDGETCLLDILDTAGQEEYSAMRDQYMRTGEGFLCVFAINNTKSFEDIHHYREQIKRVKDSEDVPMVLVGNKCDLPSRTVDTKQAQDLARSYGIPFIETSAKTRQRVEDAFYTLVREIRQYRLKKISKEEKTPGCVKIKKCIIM
GTPase KRas (Homo sapiens, UniProt P01116, G12D), sequence (P01116 whole entry G12D): as the sequence (P01116 whole entry G12V) above, with V12D counted along it

What is called IC50 is the concentration at which inhibition is half-maximal. Read a high IC50 as a need for much substance. As to `Cc1nc2c(F)c(-c3cccc(Cl)c3Cl)c(CCC#N)cc2c2c1cc([C@@H](C)NS(=O)(=O)C1CC1)n2[C@H]1[C@H]2CN[C@@H]1C2`, the IC50 at GTPase KRas [1] and against GTPase KRas [2] was not above 100 nM throughout.
In the case of `Cc1nc2c(F)c(-c3cccc(Cl)c3Cl)c(CCC#N)cc2c2c1cc([C@@H](C)NC(=O)c1cscn1)n2[C@H]1[C@H]2CN[C@@H]1C2`, the IC50 at GTPase KRas [1] and at GTPase KRas [2] was not above 100 nM in each case.
In the case of `Cc1nc2c(F)c(-c3cccc(Cl)c3Cl)c(CCC#N)cc2c2c1cc([C@@H](C)NC(=O)c1ccncn1)n2[C@H]1[C@H]2CN[C@@H]1C2`, the half-inhibitory concentration (IC50) against GTPase KRas [1] and at GTPase KRas [2] was not above 100 nM throughout.
Regarding `CN(C)C1(C)CN(c2nc3c(F)c(-c4cccc5ccc(F)cc45)c(CCC#N)cc3c3c2cc(CN2CCOCC2=O)n3[C@@H]2[C@@H]3CN[C@H]2C3)C1`, the IC50 against GTPase KRas [1] and on GTPase KRas [2] was not above 100 nM in each case.
Consider `Cc1cc2c(-n3cncn3)nc3c(F)c(-c4cc(O)cc5ccc(Cl)cc45)c(CCC#N)cc3c2n1[C@H]1[C@H]2CN[C@@H]1C2`, for which the IC50 against GTPase KRas [1] and against GTPase KRas [2] was not above 100 nM in each case.
Turning to `C[C@H](Oc1nc2c(F)c(-c3csc4ccccc34)c(CCC#N)cc2c2c1cc(CN1CCCC1=O)n2[C@H]1[C@H]2CN[C@@H]1C2)[C@@H]1CCCN1C`, the IC50 against GTPase KRas [1] and on GTPase KRas [2] was not above 100 nM each time.
